A word on the AUC: it is concentration integrated over time. The term IC50 denotes the concentration needed to halve the response being measured. The term IC90 denotes the concentration at which the effect reaches the 90% level. For orientation: EC50 means the concentration that produces a half-maximal response.

Results on one compound are retold here after ChEMBL document CHEMBL1955803, “Preclinical in vivo evaluation of efficacy, pharmacokinetics, and pharmacodynamics of a novel MEK1/2 kinase inhibitor RO5068760 in multiple tumor models” (Mol Cancer Ther, 2010).

Each structure is given as a SMILES string.

Series [1] is described as follows: Plasma concentration in human HT-29 cells expressing B-Raf V600E mutant xenografted nude mouse at 100 mg/kg, po after 2 hrs. The series is classed as ADME, organism-based. Further details: dose 100 mg/kg, route oral. In general terms: In xenograft studies the graft and the host belong to different species.
Series [2] can be described thus: AUC (0 to 12 hrs) in human HT-29 cells expressing B-Raf V600E mutant xenografted nude mouse at 25 mg/kg, po bid. The series is classed as ADME, organism-based. Further details: time < 12 hr, dose 25 mg/kg, route oral. Conditions: in vivo.
Series [3] is described as follows: AUC (0 to 12 hrs) in human H460 cells expressing K-Ras Q61H mutant xenografted nude mouse at 100 mg/kg, po bid. The series is classed as ADME, organism-based. Further details: time < 12 hr, dose 100 mg/kg, route oral. As to conditions: in vivo.
Another series has as its system MIA PaCa-2. In words: Growth inhibition of human MIAPaCa2 cells expressing K-Ras […] mutant by MTT assay. Type of series: functional, cell-based. A general note: Tetrazolium dyes change colour on reduction, which living cells bring about.
The nature of series [4]: Plasma concentration in human HT-29 cells expressing B-Raf V600E mutant xenografted nude mouse at 50 mg/kg, po after 4 hrs. Type of series: ADME, organism-based. Further details: dose 50 mg/kg, route oral.
Series [5] can be described thus: Growth inhibition of human LOX cells expressing B-Raf V600E mutant by MTT assay. Type of series: functional, cell-based.
Series [6] is described as follows: AUC (0 to 12 hrs) in human LOX cells expressing B-Raf V600E mutant xenografted nude mouse at 25 mg/kg, po bid. The series is classed as ADME, organism-based. Further details: time < 12 hr, dose 25 mg/kg, route oral. As to conditions: in vivo.
The subject of another series is Cynomolgus monkey. In words: Inhibition of MEK in po dosed cynomolgus monkey peripheral blood mononuclear cells assessed as inhibition of PMA-stimulated ERK phosphorylation after 1 to 24 hrs by flow cytometry. Conditions: Macaca fascicularis. Type of series: functional, organism-based.
For a further series, the system named is NCI-H460. In words: Antitumor activity against human H460 cells expressing K-Ras Q61H mutant xenografted in nude mouse assessed as tumor growth inhibition at 25 mg/kg, po bid. Type of series: functional. As to conditions: read-out: GI.
Series [7] deals with Mus musculus. In words: Inhibition of MEK-mediated ERK phosphorylation in tumor of human LOX cells expressing B-Raf V600E mutant xenografted nude mouse at 100 mg/kg, po after 2 hrs by Western blot analysis relative to control. Type of series: functional.
Series [8] concerns Mus musculus. Description: Toxicity in human MIAPaCa2 cells expressing K-Ras G12C mutant xenografted nude mouse assessed as gross signs of adverse effect at 500 mg/kg, po administered weekly once for 3 weeks. Type of series: organism-based, MIA PaCa-2. Further details: dose 500 mg/kg, route oral. Conditions: in vivo, 504 h.
A short description of series [9]: Drug level in human LOX cells expressing B-Raf V600E mutant xenografted nude mouse tumor at 100 mg/kg, po after 1 hr. Further details: dose 100 mg/kg, route oral. As to conditions: read-out: Drug uptake. The series is classed as ADME, organism-based, Neoplasm.
A short description of series [10]: Antitumor activity against human LOX cells expressing B-Raf V600E mutant xenografted in nude mouse assessed as tumor growth inhibition at 6.25 mg/kg, po bid. Type of series: functional. As to conditions: read-out: GI.
Series [11] in a line: Plasma concentration in human LOX cells expressing B-Raf V600E mutant xenografted nude mouse at 100 mg/kg, po after 12 hrs. Type of series: ADME, organism-based. Further details: dose 100 mg/kg, route oral.
Series [12] relates to Mus musculus. Description: Inhibition of MEK-mediated ERK phosphorylation in tumor of human HT-29 cells expressing B-Raf V600E mutant xenografted nude mouse at 100 mg/kg, po after 2 hrs by Western blot analysis relative to control. Type of series: functional. As to conditions: HT-29, 2 h.
Series [13] in a line: AUC (0 to 12 hrs) in human H460 cells expressing K-Ras Q61H mutant xenografted nude mouse at 50 mg/kg, po bid. The series is classed as ADME, organism-based. Further details: time < 12 hr, dose 50 mg/kg, route oral. Conditions: in vivo.

Compound `C[C@@H](c1ccccc1)[C@@H](C(=O)Nc1ccc(I)cc1F)N1C(=O)N[C@H](c2ccc(OC[C@H](O)CO)cc2)C1=O` displayed a concentration at 2 h in series [1] of 9360 ng/mL. For the same compound, the AUC at 12 h is 3780 ng·h/mL in series [2], 62900 ng·h/mL in series [3], 10000 ng·h/mL in series [6] and 23300 ng·h/mL in series [13]. Moreover, the values for the IC50 (with MIA PaCa-2; in series [5]) were 1250 nM and 18 nM, respectively. The IC90 in the series with MIA PaCa-2 was 5110 nM; in series [5], 720 nM. Besides, in [4], the concentration at 4 h is 4030 ng/mL. Besides, in the series with Cynomolgus monkey, the EC50 amounted to 1410 nM. Further, the inhibition in vivo at 25 mg/kg in the series with NCI-H460 is 64%. For the same compound, the values for the inhibition in vivo at 100 mg/kg with Mus musculus [7] and with Mus musculus [12] were 86% and 76%, respectively. Moreover, the Activity result with Mus musculus [8] is reported as “Non-toxic”. Further, the concentration at 1 h in series [9] turned out to be 1030 ng/g. For the same compound, in series [10], the inhibition in vivo at 6.25 mg/kg was found to be 61%. Also, the concentration at 12 h in series [11] worked out at 72 ng/mL.
